# Source: patent publication US20200368234A1, “PHOTORECEPTOR GENE MODULATOR PHOTOREGULIN 3 FOR TREATMENT OF RETINAL DISEASE” (University of Washington, priority 2017, published 2020)
# “Also recorded” adds a separate entry of the source.
# Experiments:
# Rhodopsin [1] = assay: Rhodopsin protein expression (immunofluorescence assay) in dissociated retinal cell cultures; format: cell-based; settings: P5 mouse dissociated retinal cultures, 2 days treatment, vs DMSO and PR1
# Excerpt: (§1) In order to identify compounds that may target Nr2e3 a cheminformatic strategy was used to screen hit compounds previously identified to interact with recombinant Nr2e3 in transfected CHO-S cells in a luciferase-based assay (PubChem Assay IDs: 602229, 624378, 624394, and 651849). As a secondary screen for initial hits, dissociated primary retinal cell cultures were used and assayed Rhodopsin, because it is a well-defined target of Nr2e3 signaling and is expressed at high levels exclusively in rod photoreceptors. Retina were dissociated from postnatal day 5 (P5) mice and cultured them in media containing the small molecules. After treatment for 2 days, the cells were collected for qPCR analysis and quantified Rhodopsin expression. […] This finding was confirmed with an immunofluorescence assay to examine Rhodopsin protein expression in dissociated retinal cultures from P5 mice.
# Retinas were dissected from postnatal day 5 (P5) mice and dissociated by treatment with 0.5% Trypsin diluted in calcium- and magnesium-free HBSS from 10 minutes at 37° C. Trypsin was inactivated by adding an equal volume of FBS and cells were pelleted by centrifugation at 4° C. and resuspended in media (Neurobasal-A containing 1% FBS, 1% N2, 1% B27, 1% Pen/Strep, and 0.5% L-glutamine). For qPCR, cells were plated into 24-well tissue culture plates at a density of 1 retina/well (see qPCR section below). […]
# Nr2e3-NCOR dimer complex = target: T1, Nr2e3-NCOR dimer complex (Homo sapiens, UniProt Q9Y5X4); settings: PubChem Assay IDs 602229, 624378, 624394, 651849; cited from earlier work
# T1 construct: expressed in transfected cells; host or cells: CHO-S cells
# T1 sequence (Q9Y5X4 whole entry, one chain of several): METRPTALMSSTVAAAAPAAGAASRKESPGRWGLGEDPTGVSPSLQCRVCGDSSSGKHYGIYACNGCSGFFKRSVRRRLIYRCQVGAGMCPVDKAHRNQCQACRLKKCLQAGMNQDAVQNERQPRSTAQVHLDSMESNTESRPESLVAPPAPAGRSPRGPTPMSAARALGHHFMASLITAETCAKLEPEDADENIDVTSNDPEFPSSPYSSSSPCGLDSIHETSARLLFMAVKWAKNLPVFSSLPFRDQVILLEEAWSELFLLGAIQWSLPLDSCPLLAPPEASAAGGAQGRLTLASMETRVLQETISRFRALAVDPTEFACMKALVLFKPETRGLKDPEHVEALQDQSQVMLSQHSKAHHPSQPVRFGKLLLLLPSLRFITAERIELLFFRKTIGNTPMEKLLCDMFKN
# Rhodopsin [2] = assay: Rhodopsin mRNA expression (qPCR) in dissociated retinal cell cultures; format: cell-based; settings: P5 mouse dissociated retinal cultures, 2 days treatment, vs DMSO and PR1
# Excerpt: as §1, with “mice. […]” for “mice.”
# (§2) RNA from retinas was isolated using TRIzol (Invitrogen) and cDNA was synthesized using the iScript cDNA synthesis kit (Bio-Rad). SSO Fast (Bio-Rad) was used for quantitative real-time PCR. For analysis, values were normalized to Gapdh (ΔCt) and ΔΔCt between DMSO and compound-treated samples was expressed as percent of DMSO treated controls (100*2^ΔΔCt). […]
# Rho^P23H mice = assay: Photoreceptor degeneration in Rho^P23H mice: histology and qPCR at P21; format: in vivo, mouse; settings: 10 mg/kg i.p. from P12-P14 until P21, vs DMSO vehicle
# Experimental: FIG. 3A illustrates the timeline of photoreceptor degeneration in the Rhodopsin^P23H mouse and experimental design.
# To determine whether photoreceptor degeneration can be prevented, Rho^P23H mice were treated with PR3 or vehicle from P12-P14 until P21, during the period of rod photoreceptor death (FIG. 3A). At P21, visual function was assessed with ERGs and euthanized the mice for histological and qPCR analyses. At P21, control Rho^P23H mice had only 2-3 rows of photoreceptors remaining in their ONL (FIGS. 3B and 3C). Rods were sparse and there were few remaining cones (S Opsin+ and Cone Arrestin+ photoreceptors). Control Rho^P23H mice had minimal scotopic and photopic b-wave amplitudes by ERG analysis (FIGS. 4A, 4B, 4D, and 4E). […]
# Photoregulin3 was identified by searching previous small molecule screens with SciFinder and PubChem for Nr2e3 interacting molecules. It was initially obtained from ChemDiv and then synthesized and purified in large quantities in the lab after initial screening. […]
# as §2
smiles,measurement,setting,value
COc1cc2nc(CN3CC=C(c4ccccc4)CC3)nc(O)c2cc1OC [PR3],Rhodopsin protein expression,Rhodopsin [1],reduced expression of Rhodopsin compared to DMSO vehicle and PR1
same,modulation of Nr2e3 in luciferase-based assay,Nr2e3-NCOR dimer complex,identified as a chemical modulator of Nr2e3
same,Rhodopsin mRNA expression,Rhodopsin [2],robust reduction in Rhodopsin compared to DMSO and PR1 treatment at all concentrations
same,expression of photoreceptor genes in whole retinas (qPCR),Rho^P23H mice,"greater expression of photoreceptor genes Recoverin, Rhodopsin, and S Opsin; also recorded: more expression of Recoverin and Rhodopsin"
same,rows of photoreceptors (DAPI+ cells) in the ONL,Rho^P23H mice,greater survival of photoreceptors; also recorded: several rows of rod and cone photoreceptors in the ONL
